We go through 10 molecules from patent publication US20250120989A1, “BRIDGED TRICYCLIC CARBAMOYLPYRIDONE COMPOUNDS AND USES THEREOF” (priority 2023, published 2025).

pEC50: −log10 of the molar value. Converted amounts (≈) assume the structure as drawn.

One data set is described as follows: in vitro. The settings on record: human, uninfected MT-4 cells.
A short description of a further data set: physchem. The settings on record: FaSSIF, 23 °C, thermodynamic from solid.
A further data set deals with HIV-1 (IIIB). The data set can be described thus: microbe, parasite or virus in culture. Format: cell-based. The settings on record: Human immunodeficiency virus 1, MT4, 120 h; HIV-1 (IIIB) replication in MT-4 cells, 5 days, Cell Titer Glo; read-out: MT4 EC50. (In ATP-based viability assays light output follows the ATP content of the culture.)

The term CC50 denotes the concentration at which the toxic effect on the cells reaches its halfway point. Low values mean harm at low concentration, high ones better tolerance by the cells. In general, solubility (thermodynamic) refers to solubility found after equilibrating the solid with the medium. One may read the pEC50 as the negative decadic logarithm of the EC50, by convention in mol/L. Take `CC1=NO[C@@]2(CC[C@H](C)N3C[C@H]2n2cc(C(=O)NCc4ccc(F)cc4F)c(=O)c(OCOC(=O)C(C)(C)CCN(CC(=O)O)C(=O)OCOP(=O)(O)O)c2C3=O)C1` [Compound 43, N-(4-((((3′S,5S,7′R)-10′-((2,4-difluorobenzyl)carbamoyl)-3,3′-dimethyl-1′,11′-dioxo-1′,4′,5′,11′-tetrahydro-3′H,4H,7′H-spiro[isoxazole-5,6′-[2,7]methanopyrido[1,2-a][1,4]diazonin]-12′-yl)oxy)methoxy)-3,3-dimethyl-4-oxobutyl)-N-(((phosphonooxy)methoxy)carbonyl)glycine]: in “in vitro”, it took 8.46 µM to reach half-maximal cytotoxicity (CC50 at 5 days). The same molecule had a solubility (thermodynamic) at 24 h in the data set “physchem” of 5420 µg/mL (≈ 6.43 mM). For the same molecule, the negative-log EC50 (pEC50) in the data set with HIV-1 (IIIB) is 8.75.

In turn, `COC1=NO[C@@]2(CC[C@H](C)N3C[C@H]2n2cc(C(=O)NCc4ccc(F)cc4F)c(=O)c(OCOC(=O)O[C@H](C)COP(=O)(O)O)c2C3=O)C1` [Compound 54, (((3′S,5S,7′R)-10′-((2,4-difluorobenzyl)carbamoyl)-3-methoxy-3′-methyl-1′,11′-dioxo-1′,4′,5′,11′-tetrahydro-3′H,4H,7′H-spiro[isoxazole-5,6′-[2,7]methanopyrido[1,2-a][1,4]diazonin]-12′-yl)oxy)methyl ((R)-1-(phosphonooxy)propan-2-yl) carbonate] yielded a CC50 at 5 days in “in vitro” of 15.5 µM. The solubility (thermodynamic) at 24 h in the data set “physchem” was found to be 4660 µg/mL (≈ 6.51 mM). Further, the pEC50 in the data set with HIV-1 (IIIB) was 8.36.

In the data set “in vitro”, `CC1=NO[C@@]2(CC[C@H](C)N3C[C@H]2n2cc(C(=O)NCc4ccc(F)cc4F)c(=O)c(OCOC(=O)O[C@@H](C)[C@@H](C)OP(=O)(O)O)c2C3=O)C1` [Compound 57, (((3′S,5S,7′R)-10′-((2,4-difluorobenzyl)carbamoyl)-3,3′-dimethyl-1′,11′-dioxo-1′,4′,5′,11′-tetrahydro-3′H,4H,7′H-spiro[isoxazole-5,6′-[2,7]methanopyrido[1,2-a][1,4]diazonin]-12′-yl)oxy)methyl ((2S,3R)-3-(phosphonooxy)butan-2-yl) carbonate] displayed a CC50 at 5 days of 19.9 µM. In the data set “physchem”, this molecule showed a thermodynamic solubility at 24 h of 4630 µg/mL (≈ 6.5 mM). Further, in the data set on HIV-1 (IIIB), the pEC50 is 8.63.

In the case of `CC1=NO[C@@]2(CC[C@H](C)N3C[C@H]2n2cc(C(=O)NCc4ccc(F)cc4F)c(=O)c(OCOC(=O)O[C@H](C)[C@H](C)OP(=O)(O)O)c2C3=O)C1` [Compound 58, (((3′S,5S,7′R)-10′-((2,4-difluorobenzyl)carbamoyl)-3,3′-dimethyl-1′,11′-dioxo-1′,4′,5′,11′-tetrahydro-3′H,4H,7′H-spiro[isoxazole-5,6′-[2,7]methanopyrido[1,2-a][1,4]diazonin]-12′-yl)oxy)methyl ((2R,3S)-3-(phosphonooxy)butan-2-yl) carbonate], the half-maximal cytotoxic concentration (CC50) at 5 days in the data set “in vitro” was 24.2 µM. This molecule also yielded a solubility (thermodynamic) at 24 h in the data set “physchem” of 4860 µg/mL (≈ 6.82 mM). For the same molecule, the pEC50 with HIV-1 (IIIB) is 8.68.

Turning to `COC1=NO[C@@]2(CC[C@H](C)N3C[C@H]2n2cc(C(=O)NCc4ccc(F)cc4F)c(=O)c(OCOC(=O)O[C@@H](C)[C@@H](C)OP(=O)(O)O)c2C3=O)C1` [Compound 59, (((3′S,5S,7′R)-10′-((2,4-difluorobenzyl)carbamoyl)-3-methoxy-3′-methyl-1′,11′-dioxo-1′,4′,5′,11′-tetrahydro-3′H,4H,7′H-spiro[isoxazole-5,6′-[2,7]methanopyrido[1,2-a][1,4]diazonin]-12′-yl)oxy)methyl ((2S,3R)-3-(phosphonooxy)butan-2-yl) carbonate], the CC50 at 5 days in the data set “in vitro” is 18.8 µM. The thermodynamic solubility at 24 h in “physchem” is 5240 µg/mL (≈ 7.19 mM). In addition, the pEC50 in the data set with HIV-1 (IIIB) is 8.69.

For the molecule `COC1=NO[C@@]2(CC[C@H](C)N3C[C@H]2n2cc(C(=O)NCc4ccc(F)cc4F)c(=O)c(OCOC(=O)O[C@H](C)[C@H](C)OP(=O)(O)O)c2C3=O)C1` [Compound 60, (((3′S,5S,7′R)-10′-((2,4-difluorobenzyl)carbamoyl)-3-methoxy-3′-methyl-1′,11′-dioxo-1′,4′,5′,11′-tetrahydro-3′H,4H,7′H-spiro[isoxazole-5,6′-[2,7]methanopyrido[1,2-a][1,4]diazonin]-12′-yl)oxy)methyl ((2R,3S)-3-(phosphonooxy)butan-2-yl) carbonate], it took 23.8 µM to reach half-maximal cytotoxicity in the data set “in vitro” (CC50 at 5 days). The thermodynamic solubility at 24 h in the data set “physchem” was found to be 4520 µg/mL (≈ 6.2 mM). Further, the pEC50 in the data set with HIV-1 (IIIB) was 8.72.

In the case of `COC1=NO[C@@]2(CC[C@H](C)N3C[C@H]2n2cc(C(=O)NCc4ccc(F)cc4F)c(=O)c(OCOC(=O)O[C@H](C)[C@@H](C)OP(=O)(O)O)c2C3=O)C1` [Compound 61, (((3′S,5S,7′R)-10′-((2,4-difluorobenzyl)carbamoyl)-3-methoxy-3′-methyl-1′,11′-dioxo-1′,4′,5′,11′-tetrahydro-3′H,4H,7′H-spiro[isoxazole-5,6′-[2,7]methanopyrido[1,2-a][1,4]diazonin]-12′-yl)oxy)methyl ((2R,3R)-3-(phosphonooxy)butan-2-yl) carbonate], in “in vitro”, half-maximal cytotoxicity (CC50 at 5 days) was put at 20.9 µM. In the data set “physchem”, the thermodynamic solubility at 24 h was 4800 µg/mL (≈ 6.58 mM). Besides, in the data set on HIV-1 (IIIB), the pEC50 was 8.63.

`CC1=NO[C@@]2(CC[C@H](C)N3C[C@H]2n2cc(C(=O)NCc4ccc(F)cc4F)c(=O)c(OCOC(=O)OC(C)(C)COP(=O)(O)O)c2C3=O)C1` [Compound 62, (((3′S,5S,7′R)-10′-((2,4-difluorobenzyl)carbamoyl)-3,3′-dimethyl-1′,11′-dioxo-1′,4′,5′,11′-tetrahydro-3′H,4H,7′H-spiro[isoxazole-5,6′-[2,7]methanopyrido[1,2-a][1,4]diazonin]-12′-yl)oxy)methyl (2-methyl-1-(phosphonooxy)propan-2-yl) carbonate] registered a CC50 at 5 days in the data set “in vitro” of 28.1 µM. This molecule came in with a solubility (thermodynamic) at 24 h in the data set “physchem” of 5040 µg/mL (≈ 7.08 mM). The pEC50 in the data set with HIV-1 (IIIB) was 8.59.

In “in vitro”, `COC1=NO[C@@]2(CC[C@H](C)N3C[C@H]2n2cc(C(=O)NCc4ccc(F)cc4F)c(=O)c(OCOC(=O)OC(C)(C)COP(=O)(O)O)c2C3=O)C1` [Compound 63, (((3′S,5S,7′R)-10′-((2,4-difluorobenzyl)carbamoyl)-3-methoxy-3′-methyl-1′,11′-dioxo-1′,4′,5′,11′-tetrahydro-3′H,4H,7′H-spiro[isoxazole-5,6′-[2,7]methanopyrido[1,2-a][1,4]diazonin]-12′-yl)oxy)methyl (2-methyl-1-(phosphonooxy)propan-2-yl) carbonate] returned a CC50 at 5 days of 35.4 µM. In “physchem”, this molecule returned a thermodynamic solubility at 24 h of 4620 µg/mL (≈ 6.35 mM). The pEC50 with HIV-1 (IIIB) is 8.29.

`CC[C@H](COC(=O)OCOc1c2n(cc(C(=O)NCc3ccc(F)cc3F)c1=O)[C@@H]1CN(C2=O)[C@@H](C)CC[C@]12CC(C)=NO2)OP(=O)(O)O` [Compound 64, (((3′S,5S,7′R)-10′-((2,4-difluorobenzyl)carbamoyl)-3,3′-dimethyl-1′,11′-dioxo-1′,4′,5′,11′-tetrahydro-3′H,4H,7′H-spiro[isoxazole-5,6′-[2,7]methanopyrido[1,2-a][1,4]diazonin]-12′-yl)oxy)methyl ((R)-2-(phosphonooxy)butyl) carbonate] gave a CC50 at 5 days in “in vitro” of 13.6 µM. In addition, in the data set “physchem”, the thermodynamic solubility at 24 h came to 4840 µg/mL (≈ 6.8 mM). Moreover, the pEC50 with HIV-1 (IIIB) was 8.91.
